# Oligonucleotides are written 5' to 3', each unit as a sugar letter and its base; * is a phosphorothioate linkage, no mark a phosphodiester; rarer units and linkages stand in square brackets, end groups in braces. Plain capitals give the bases only. e = 2'-O-(2-methoxyethyl) (MOE); k = constrained ethyl (cEt); [5mC] = 5-methylcytosine; d = 2'-deoxy (DNA)
# Assays:
# AR mRNA [1] = experiment: Antisense inhibition of human AR in HuVEC cells, single concentration (electroporation, qRT-PCR RTS3559); assay type: cell-based
# Experimental: Antisense oligonucleotides were designed targeting an AR nucleic acid and were tested for their effects on AR mRNA in vitro. The antisense oligonucleotides were tested in a series of experiments that had similar culture conditions. […] Human primer probe set RTS3559 (forward sequence [NT], designated herein as SEQ ID NO: 9; reverse sequence [NT], designated herein as SEQ ID NO: 10; probe sequence [NT], designated herein as SEQ ID NO: 11) was used to measure mRNA levels. AR mRNA levels were adjusted according to total RNA content, as measured by RIBOGREEN®. […] A total of 155 oligonucleotides were tested. Additional antisense oligonucleotides were designed targeting an AR nucleic acid and were tested for their effects on AR mRNA in vitro. […] Human primer probe set RTS3559 was used to measure mRNA levels. AR mRNA levels were adjusted according to total RNA content, as measured by RIBOGREEN®. […] A total of 82 oligonucleotides were tested. Additional antisense oligonucleotides were designed targeting an AR nucleic acid and were tested for their effects on AR mRNA in vitro. […] Human primer probe set RTS3559 was used to measure mRNA levels. AR mRNA levels were adjusted according to total RNA content, as measured by RIBOGREEN®. […] A total of 40 oligonucleotides were tested. Additional antisense oligonucleotides were designed targeting an AR nucleic acid and were tested for their effects on AR mRNA in vitro. […] Human primer probe set RTS3559 was used to measure mRNA levels. AR mRNA levels were adjusted according to total RNA content, as measured by RIBOGREEN®. […] A total of 75 oligonucleotides were tested. Additional antisense oligonucleotides were designed targeting an AR nucleic acid and were tested for their effects on AR mRNA in vitro. […] Human primer probe set RTS3559 was used to measure mRNA levels. AR mRNA levels were adjusted according to total RNA content, as measured by RIBOGREEN®. […] A total of 616 oligonucleotides were tested. Additional antisense oligonucleotides were designed targeting an AR nucleic acid and were tested for their effects on AR mRNA in vitro. […] Human primer probe set RTS3559 was used to measure mRNA levels. AR mRNA levels were adjusted according to total RNA content, as measured by RIBOGREEN®. […] A total of 385 oligonucleotides were tested.
# AR mRNA [2] = experiment: Dose-dependent antisense inhibition of human AR in HuVEC cells (electroporation, qRT-PCR RTS3559, IC50); assay type: cell-based; conditions: HuVEC
# Experimental: (§1) After a treatment period of approximately 16 hours, RNA was isolated from the cells and AR mRNA levels were measured by quantitative real-time PCR. Human AR primer probe set RTS3559 was used to measure mRNA levels. AR mRNA levels were adjusted according to total RNA content, as measured by RIBOGREEN®. […] The antisense oligonucleotides were tested in a series of experiments that had similar culture conditions.
# as §1, §1, §1, §1
# (§2) After a treatment period of approximately 16 hours, RNA was isolated from the cells and AR mRNA levels were measured by quantitative real-time PCR. Human AR primer probe set RTS3559 was used to measure mRNA levels. AR mRNA levels were adjusted according to total RNA content, as measured by RIBOGREEN®.
# as §2
# [3] = 500 nM ASO, electroporation, ~24 h, Table 1
# [4] = Table 20, 500 nM oligonucleotide, electroporation, approximately 24 hours, relative to untreated control
# [5] = Table 33, electroporation, approximately 16 hours
# [6] = Table 31, electroporation, approximately 16 hours
# [7] = Table 24, 1,000 nM oligonucleotide, electroporation, approximately 24 hours, relative to untreated control
# [8] = Table 35, electroporation, approximately 16 hours
# [9] = Table 34, electroporation, approximately 16 hours
# [10] = Table 29, electroporation, approximately 16 hours
# [11] = Table 36, electroporation, approximately 16 hours
substance,measurement,setting,value
549388 (kT*k[5mC]*k[5mC]*d[5mC]*dT*dT*d[5mC]*dA*dG*d[5mC]*dG*dG*d[5mC]*kT*k[5mC]*kT; antisense) [compound 549388],% inhibition,AR mRNA [1]; [3],88%
same,percent inhibition of AR,"AR mRNA [2]; 55.6 nM, ~16 h, Table 3",15%
same,percent inhibition of AR,"AR mRNA [2]; 166.7 nM, ~16 h, Table 3",42%
same,percent inhibition of AR,"AR mRNA [2]; 500.0 nM, ~16 h, Table 3",36%
same,percent inhibition of AR,"AR mRNA [2]; 1500.0 nM, ~16 h, Table 3",86%
same,IC50,"AR mRNA [2]; ~16 h, Table 3",428 nM
583833 (kT*kG*kT*dT*d[5mC]*d[5mC]*d[5mC]*d[5mC]*dT*dG*dG*dA*d[5mC]*kT*k[5mC]*kA; antisense) [compound 583833],% inhibition,AR mRNA [1]; [4],37%
same,"percent inhibition of AR, 46.9 nM",AR mRNA [2]; [5],26%
same,"percent inhibition of AR, 187.5 nM",AR mRNA [2]; [5],43%
same,"percent inhibition of AR, 750.0 nM",AR mRNA [2]; [5],70%
same,"percent inhibition of AR, 3000.0 nM",AR mRNA [2]; [5],74%
same,IC50,AR mRNA [2]; [5],260 nM
549361 (kG*kA*k[5mC]*dA*d[5mC]*d[5mC]*dG*dA*d[5mC]*dA*d[5mC]*dT*dG*k[5mC]*k[5mC]*kT; antisense) [compound 549361],% inhibition,AR mRNA [1]; [3],84%
same,percent inhibition of AR,"AR mRNA [2]; 55.6 nM, ~16 h, Table 3",12%
same,percent inhibition of AR,"AR mRNA [2]; 166.7 nM, ~16 h, Table 3",30%
same,percent inhibition of AR,"AR mRNA [2]; 500.0 nM, ~16 h, Table 3",52%
same,percent inhibition of AR,"AR mRNA [2]; 1500.0 nM, ~16 h, Table 3",66%
same,IC50,"AR mRNA [2]; ~16 h, Table 3",525 nM
583693 (antisense k[5mC]*kT*kG*dT*dG*dA*dT*dG*dA*dT*dG*d[5mC]*dG*kG*kT*kA) [compound 583693],% inhibition,"AR mRNA [1]; 500 nM ASO, ~24 h, Table 18",36%
same,"percent inhibition of AR, 46.9 nM",AR mRNA [2]; [6],12%
same,"percent inhibition of AR, 187.5 nM",AR mRNA [2]; [6],39%
same,"percent inhibition of AR, 750.0 nM",AR mRNA [2]; [6],64%
same,"percent inhibition of AR, 3000.0 nM",AR mRNA [2]; [6],80%
same,IC50,AR mRNA [2]; [6],380 nM
583893 (kA*kG*k[5mC]*dA*dG*d[5mC]*d[5mC]*dT*dA*dG*dG*d[5mC]*dT*k[5mC]*kT*k[5mC]; antisense) [compound 583893],% inhibition,AR mRNA [1]; [4],34%
same,"percent inhibition of AR, 46.9 nM",AR mRNA [2]; [5],15%
same,"percent inhibition of AR, 187.5 nM",AR mRNA [2]; [5],35%
same,"percent inhibition of AR, 750.0 nM",AR mRNA [2]; [5],62%
same,"percent inhibition of AR, 3000.0 nM",AR mRNA [2]; [5],79%
same,IC50,AR mRNA [2]; [5],420 nM
584180 (kG*kT*kA*dG*dA*dT*dT*d[5mC]*dT*dA*dG*d[5mC]*dT*kT*kT*kG; antisense) [compound 584180],% inhibition,AR mRNA [1]; [7],81%
same,"percent inhibition of AR, 46.9 nM",AR mRNA [2]; [8],26%
same,"percent inhibition of AR, 187.5 nM",AR mRNA [2]; [8],56%
same,"percent inhibition of AR, 750.0 nM",AR mRNA [2]; [8],84%
same,"percent inhibition of AR, 3000.0 nM",AR mRNA [2]; [8],96%
same,IC50,AR mRNA [2]; [8],120 nM
584002 (k[5mC]*kT*kG*d[5mC]*dT*d[5mC]*dA*d[5mC]*d[5mC]*dA*dT*dG*d[5mC]*k[5mC]*kG*k[5mC]; antisense) [compound 584002],% inhibition,"AR mRNA [1]; Table 22, 500 nM oligonucleotide, electroporation, approximately 24 hours, relative to untreated control",30%
same,"percent inhibition of AR, 46.9 nM",AR mRNA [2]; [9],12%
same,"percent inhibition of AR, 187.5 nM",AR mRNA [2]; [9],46%
same,"percent inhibition of AR, 750.0 nM",AR mRNA [2]; [9],70%
same,"percent inhibition of AR, 3000.0 nM",AR mRNA [2]; [9],92%
same,IC50,AR mRNA [2]; [9],250 nM
583662 (antisense kA*kG*kA*dA*dG*dA*d[5mC]*dA*d[5mC]*dA*d[5mC]*dG*dG*kT*kG*kG) [compound 583662],% inhibition,"AR mRNA [1]; 500 nM ASO, ~24 h, Table 17",51%
same,"percent inhibition of AR, 46.9 nM",AR mRNA [2]; [10],27%
same,"percent inhibition of AR, 187.5 nM",AR mRNA [2]; [10],59%
same,"percent inhibition of AR, 750.0 nM",AR mRNA [2]; [10],75%
same,"percent inhibition of AR, 3000.0 nM",AR mRNA [2]; [10],75%
same,IC50,AR mRNA [2]; [10],150 nM
583847 (kA*k[5mC]*kA*dG*d[5mC]*dG*dG*dG*dT*dG*dG*dA*dA*k[5mC]*kT*k[5mC]; antisense) [compound 583847],% inhibition,AR mRNA [1]; [4],34%
same,"percent inhibition of AR, 46.9 nM",AR mRNA [2]; [5],8%
same,"percent inhibition of AR, 187.5 nM",AR mRNA [2]; [5],30%
same,"percent inhibition of AR, 750.0 nM",AR mRNA [2]; [5],60%
same,"percent inhibition of AR, 3000.0 nM",AR mRNA [2]; [5],84%
same,IC50,AR mRNA [2]; [5],460 nM
583933 (k[5mC]*kA*kG*d[5mC]*dG*dG*dG*dT*dT*d[5mC]*dT*d[5mC]*d[5mC]*kA*kG*k[5mC]; antisense) [compound 583933],% inhibition,"AR mRNA [1]; Table 21, 500 nM oligonucleotide, electroporation, approximately 24 hours, relative to untreated control",38%
same,"percent inhibition of AR, 46.9 nM",AR mRNA [2]; [9],22%
same,"percent inhibition of AR, 187.5 nM",AR mRNA [2]; [9],25%
same,"percent inhibition of AR, 750.0 nM",AR mRNA [2]; [9],56%
same,"percent inhibition of AR, 3000.0 nM",AR mRNA [2]; [9],81%
same,IC50,AR mRNA [2]; [9],410 nM
584158 (kG*kG*kT*dT*dA*dA*d[5mC]*dT*dT*dT*d[5mC]*dT*d[5mC]*kT*kG*kA; antisense) [compound 584158],% inhibition,AR mRNA [1]; [7],69%
same,"percent inhibition of AR, 46.9 nM",AR mRNA [2]; [11],14%
same,"percent inhibition of AR, 187.5 nM",AR mRNA [2]; [11],37%
same,"percent inhibition of AR, 750.0 nM",AR mRNA [2]; [11],70%
same,"percent inhibition of AR, 3000.0 nM",AR mRNA [2]; [11],89%
same,IC50,AR mRNA [2]; [11],260 nM
560132 (antisense kG*kT*kT*dG*dA*dT*dT*dT*dA*dA*dT*dG*kG*kT*kT*eG) [compound 560132],% inhibition,"AR mRNA [1]; 1,000 nM ASO, ~24 h, Table 13",58%
same,percent inhibition of AR,"AR mRNA [2]; 31.25 nM, ~16 h, Table 14",8%
same,percent inhibition of AR,"AR mRNA [2]; 62.5 nM, ~16 h, Table 14",19%
same,percent inhibition of AR,"AR mRNA [2]; 125.0 nM, ~16 h, Table 14",21%
same,percent inhibition of AR,"AR mRNA [2]; 500.0 nM, ~16 h, Table 14",65%
same,percent inhibition of AR,"AR mRNA [2]; 1000.0 nM, ~16 h, Table 14",85%
same,IC50,"AR mRNA [2]; ~16 h, Table 14",252 nM
